This passage reports Ki results from patent US7189720B2 (H. Lundbeck A/S, priority 1999, dated 2007).

The first assay deals with T1, human Y5 receptor (Homo sapiens, UniProt Q15761).
T1 construct: expressed in transfected cells; host or cells: mouse fibroblast LM(tk-) cells, e.g. L-hY5-7 (ATCC CRL-11995)
T1 sequence (Q15761 1-445): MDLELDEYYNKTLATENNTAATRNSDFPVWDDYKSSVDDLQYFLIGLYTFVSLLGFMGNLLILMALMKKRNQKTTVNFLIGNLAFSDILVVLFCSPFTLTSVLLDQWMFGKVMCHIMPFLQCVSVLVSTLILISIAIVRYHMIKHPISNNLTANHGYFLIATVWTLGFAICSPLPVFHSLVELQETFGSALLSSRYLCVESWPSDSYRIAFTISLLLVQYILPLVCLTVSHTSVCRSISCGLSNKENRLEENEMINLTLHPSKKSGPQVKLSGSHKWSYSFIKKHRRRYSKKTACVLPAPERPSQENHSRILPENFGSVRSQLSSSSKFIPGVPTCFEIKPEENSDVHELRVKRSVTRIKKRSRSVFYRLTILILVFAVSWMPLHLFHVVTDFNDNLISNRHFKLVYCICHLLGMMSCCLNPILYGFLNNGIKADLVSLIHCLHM
As to the kind of experiment: Radioligand binding to membranes, cloned human Y5 receptor. As to conditions: Table 1; read-out: Ki (nM) hNPY-5.
On to `COC[C@@H]1CCCN1c1nc(NCC2CCC(CNS(=O)(=O)c3cccc4ccccc34)CC2)nc(NC(C)C)n1` (stereo partly drawn) [Example 21, N1-(4-[(4-(isopropylamino)-6-[(2S)-2-(methoxymethyl)tetrahydro-1H-1-pyrrolyl]-1,3,5-triazin-2-ylamino)methyl]cyclohexylmethyl)-1-naphthalenesulfonamide], for which the Ki came out at 71 nM.

Regarding `COCCCNc1nc(NCC2CCC(CNS(=O)(=O)c3cccc4ccccc34)CC2)nc(NC(C)C)n1` (centres unmarked) [Example 13, N1-(4-[(4-(isopropylamino)-6-[(3-methoxypropyl)amino]-1,3,5-triazin-2-ylamino)methyl]cyclohexylmethyl)-1-naphthalenesulfonamide], the Ki stood at 22 nM.

Turning to `CC(C)Nc1nc(NCC2CCC(CNS(=O)(=O)c3cccc4ccccc34)CC2)nc(N2CCCCC2)n1` (centres unmarked) [Example 22, N1-{[4-({[4-(isopropylamino)-6-piperidino-1,3,5-triazin-2-yl]amino}methyl)cyclohexyl]methyl}-1-naphthalenesulfonamide], the Ki is 38 nM.

With `CC(C)Nc1nc(NCC2CCC(CNS(=O)(=O)c3cccc4ccccc34)CC2)nc(N(C)CCO)n1` (centres unmarked) [Example 26, N1-[4-([4-[(2-hydroxyethyl)(methyl)amino]-6-(isopropylamino)-1,3,5-triazin-2-yl]aminomethyl)cyclohexyl]methyl-1-naphthalenesulfonamide], the Ki is 86 nM.

In the case of `CC(C)Nc1nc(NCC2CCC(CNS(=O)(=O)c3cccc4ccccc34)CC2)nc(N(C)C)n1` (centres unmarked) [Example 17, N1-{[4-({[4-(dimethylamino)-6-(isopropylamino)-1,3,5-triazin-2-yl]amino}methyl)cyclohexyl]methyl}-1-naphthalenesulfonamide], the Ki came out at 27 nM.

`CC(=O)N1CCN(c2nc(NCC3CCC(CNS(=O)(=O)c4cccc5ccccc45)CC3)nc(NC(C)C)n2)CC1` (centres unmarked) [Example 27, N1-{[4-({[4-(4-acetylpiperazino)-6-(isopropylamino)-1,3,5-triazin-2-yl]amino}methyl)cyclohexyl]methyl}-1-naphthalenesulfonamide]: the Ki came out at 31 nM.

Staying with this assay, now noted: Table 3; read-out: Ki (nM) hNPY-5.
On to `CC(C)Nc1nc(NCC2CCC(CNS(=O)(=O)N3CCOCC3)CC2)nc(N2CCOCC2)n1` (centres unmarked) [Example 44, N4-[4-([4-(isopropylamino)-6-morpholino-1,3,5-triazin-2-yl]aminomethyl)cyclohexyl]methyl-4-morpholinesulfonamide], for which the Ki worked out at 295 nM.

In the case of `CC(C)(C)c1ccc(S(=O)(=O)NCC2CCC(CNc3nc(N4CCCC4)nc(N4CCCC4)n3)CC2)cc1` (centres unmarked) [Example 46, N1-[(4-[(4,6-ditetrahydro-1H-1-pyrrolyl-1,3,5-triazin-2-yl)amino]methylcyclohexyl)methyl]-4-(tert-butyl)-1-benzenesulfonamide], the Ki is 68 nM.

Regarding `CC(C)Nc1nc(NCC2CCC(CNS(=O)(=O)N3CCCC3)CC2)nc(N2CCCC2)n1` (centres unmarked) [Example 43, N1-[4-([4-(isopropylamino)-6-tetrahydro-1H-1-pyrrolyl-1,3,5-triazin-2-yl]aminomethyl)cyclohexyl]methyl-1-pyrrolidinesulfonamide], the Ki is 43 nM.

Regarding `CC(C)Nc1nc(NCC2CCC(CNS(=O)(=O)N(C)C)CC2)nc(NC2CC2)n1` (centres unmarked) [Example 48, N′-[4-([4-(cyclopropylamino)-6-(isopropylamino)-1,3,5-triazin-2-yl]aminomethyl)cyclohexyl]methyl-N,N-dimethylsulfamide], the Ki was 192 nM.

The same assay, now with this note: Table 4; read-out: Ki (nM) hNPY-5.
Take `CCNc1nc(NCC)nc(NCc2ccccn2)n1` [Example 58, N2,N4-diethyl-N6-(2-pyridylmethyl)-1,3,5-triazine-2,4,6-triamine]: the Ki is over 100000 nM.

Still in this assay, the particulars now being: Table 5; read-out: Ki, nM hNPY-5.
Consider `O=S(=O)(N[C@H]1CC[C@H](CNc2nc(-c3cccnc3)cs2)CC1)c1ccccc1F` [Example 86, trans-2-(4-(2-Fluorophenyl)sulfonylamino)cyclohexylmethyl-amino-4-(3-pyridyl)thiazole dihydrogen chloride], for which the Ki worked out at 12.3 nM.

Regarding `COc1ccc(S(=O)(=O)NCCCCCNc2nc(-c3ccccn3)cs2)cc1` [Example 62, 2-(5-(4-Methoxyphenyl)sulfonylamino)pentylamino-4-(2-pyridyl)thiazole hydrogen chloride], the Ki was determined as 33 nM.

As for `Cc1nc(-c2cnc(NC[C@H]3CC[C@H](CNS(=O)(=O)N(C)C)CC3)s2)c(C)s1` [Example 99, trans-N′-[4-([5-(2,5-Dimethyl-1,3-thiazol-4-yl)-1,3-thiazol-2-yl]aminomethyl)cyclohexyl]methyl-N,N-dimethyl-sulfamide], the Ki was determined as 3.1 nM.

For the molecule `O=S(=O)(N[C@H]1CC[C@H](CNc2nc(-c3ccccn3)cs2)CC1)c1ccccc1F` [Example 84, trans-2-(4-(2-Fluorophenyl)sulfonylamino)cyclohexylmethyl-amino-4-(2-pyridyl)thiazole dihydrogen chloride], the Ki amounted to 8.4 nM.

As for `Cc1nc(-c2csc(NCCCCCNS(=O)(=O)N(C)C)n2)c(C)s1` [Example 96, N′-(5-[4-(2,5-Dimethyl-1,3-thiazol-4-yl)-1,3-thiazol-2-yl]aminopentyl)-N,N-dimethylsulfamide], the Ki came out at 8.1 nM.

Still in this assay, the particulars now being: Table 6; read-out: Ki, nM hNPY-5.
Regarding `CC(C)N(C=O)[C@H]1CC[C@H](CNc2nc3c(s2)CCSc2ccc(F)cc2-3)CC1` [Example 166, N-(4-[(9-Fluoro-4,5-dihydrobenzo[2,3]thiepino[4,5-d][1,3]thiazol-2-yl)amino]methylcyclohexyl)-N-isopropylformamide], the Ki turned out to be 6 nM.

Regarding `O=S(=O)(NCCCCCCNc1nc2c(s1)CCSc1ccccc1-2)c1ccc(-c2ccon2)s1` [Example 129, N2-[6-(4,5-Dihydrobenzo[2,3]thiepino[4,5-d][1,3]thiazol-2-ylamino)hexyl]-5-(3-isoxazolyl)-2-thiophenesulfonamide], the Ki came out at 29 nM.

In the case of `Cc1ccc(S(=O)(=O)NC[C@H]2CC[C@H](Nc3nc4c(s3)CCSc3ccccc3-4)CC2)cc1` [Example 156, N1-{[4-(4,5-Dihydrobenzo[2,3]thiepino[4,5-d][1,3]thiazol-2-ylamino)cyclohexyl]methyl}-4-methyl-1-benzenesulfonamide], the inhibitory constant (Ki) was found to be 6.6 nM.

In the case of `O=S(=O)(NCCCCCNc1nc2c(s1)CCSc1ccccc1-2)c1c(Cl)cccc1Cl` [Example 131, N1-[5-(4,5-Dihydrobenzo[2,3]thiepino[4,5-d][1,3]thiazol-2-ylamino)pentyl]-2,6-dichloro-1-benzenesulfonamide], the Ki amounted to 71 nM.

Consider `N#Cc1ccccc1S(=O)(=O)NC[C@H]1CC[C@H](Nc2nc3c(s2)CCSc2ccccc2-3)CC1` [Example 154, N1-{[4-(4,5-Dihydrobenzo[2,3]thiepino[4,5-d][1,3]thiazol-2-ylamino)cyclohexyl]methyl}-2-cyano-1-benzenesulfonamide], for which the Ki is 69 nM.

Regarding `O=[N+]([O-])c1ccccc1S(=O)(=O)NC[C@H]1CC[C@H](Nc2nc3c(s2)CCSc2ccccc2-3)CC1` [Example 124, N1-{[4-(4,5-Dihydrobenzo[2,3]thiepino[4,5-d][1,3]thiazol-2-ylamino)cyclohexyl]methyl}-2-nitro-1-benzenesulfonamide], the Ki is 11.5 nM.

`O=S(=O)(NCCCCCCNc1nc2c(s1)CCSc1ccccc1-2)c1cccc2ccccc12` [Example 114, N1-[6-(4,5-Dihydrobenzo[2,3]thiepino[4,5-d][1,3]thiazol-2-ylamino)hexyl]-1-naphthalenesulfonamide]: the Ki turned out to be 16.6 nM.

As to `O=S(=O)(NCCCCCCNc1nc2c(s1)CCSc1ccccc1-2)c1c(Cl)nc2sccn12` [Example 117, N5-[6-(4,5-Dihydrobenzo[2,3]thiepino[4,5-d][1,3]thiazol-2-ylamino)hexyl]-6-chloroimidazo[2,1-b][1,3]thiazole-5-sulfonamide], the Ki is 6.6 nM.

As for `O=[N+]([O-])c1ccccc1S(=O)(=O)NCCCCCCNc1nc2c(s1)CCSc1ccccc1-2` [Example 116, N1-[6-(4,5-Dihydrobenzo[2,3]thiepino[4,5-d][1,3]thiazol-2-ylamino)hexyl]-2-nitro-1-benzenesulfonamide], the Ki was 7.1 nM.

With `O=S(=O)(NCCCCNc1nc2c(s1)CCSc1ccccc1-2)c1ccc(F)cc1F` [Example 138, N1-[4-(4,5-Dihydrobenzo[2,3]thiepino[4,5-d][1,3]thiazol-2-ylamino)butyl]-2,4-difluoro-1-benzenesulfonamide], the Ki worked out at 119 nM.

Consider `O=S(=O)(NC[C@H]1CC[C@H](Nc2nc3c(s2)CCSc2ccccc2-3)CC1)c1ccc(-c2ccon2)s1` [Example 126, N2-{[4-(4,5-Dihydrobenzo[2,3]thiepino[4,5-d][1,3]thiazol-2-ylamino)cyclohexyl]methyl}-5-(3-isoxazolyl)-2-thiophenesulfonamide], for which the Ki turned out to be 34 nM.

Consider `CCS(=O)(=O)NCCCCCCNc1nc2c(s1)CCSc1ccccc1-2` [Example 105, N1-[6-(4,5-Dihydrobenzo[2,3]thiepino[4,5-d][1,3]thiazol-2-ylamino)hexyl]-1-ethanesulfonamide], for which the Ki worked out at 5.4 nM.

With `O=S(=O)(NCCCCCCNc1nc2c(s1)CCSc1ccccc1-2)c1cccc2nsnc12` [Example 112, N4-[6-(4,5-Dihydrobenzo[2,3]thiepino[4,5-d][1,3]thiazol-2-ylamino)hexyl]-2,1,3-benzothiadiazole-4-sulfonamide], the Ki is 4.4 nM.

One may read the Ki as a dissociation constant, usually derived from enzyme kinetics or from competition with a known ligand.
